Our source for the IC50 values is patent US6300331A, “Naphthalimidobenzamide derivatives” (Taiho Pharmaceutical Co., Ltd., priority 1998, dated 2001).

Where a name gives a salt, the structure may show the parent alone.

This experiment relates to KB cells. As to the kind of experiment: Cytotoxicity against KB cells (crystal violet dying method). In kind it is cell-based. As to conditions: Homo sapiens; KB cells, 72 hours, 50% proliferation inhibition; read-out: Cytotoxicity [IC50 (μM)]. Here is the method:
Test 1 Cytotoxicity against KB cells
The residue was re-suspended in an MEM medium containing 10% fetal bovine serum. Then, an equivalent amount of a 0.2% trypan blue solution was added to a portion of the cell suspension, followed by mixing. The number of living cells which had not been dyed with the trypan blue was counted by a hemocytometer and the suspension was diluted and adjusted with the above-described culture medium to give a cell concentration of 1×10^4 cells/ml. Each well of a 96-well plate was inoculated with a 100-μl portion of the resulting suspension, in other words, was inoculated to give a concentration of 1×10^3 cells/well.
To the cells cultured in a CO2 incubator for 24 hours after the inoculation was added 100 μl/well of a medicament solution, followed by culturing for 72 hours. To a control was added 100 μl of an MEM medium.
The cytotoxicity of the medicament was determined from a change in the number of the cells by using the crystal violet dying method.
After washing the plate with water, 100 μl/well of a 0.05% crystal violet solution dissolved in 20% methanol was added to dye the cells therewith for about 15 minutes. The plate was washed to remove the unbound crystal violet, followed by the addition of 100 μl/well of 0.05M NaH2 PO4 /ethanol (1:1 v/v), whereby the crystal violet bound to the cellular protein was extracted.

For the molecule `O=C(NCCNCCN1C(=O)c2cccc3cccc(c23)C1=O)c1cc(C(=O)NCCNCCN2C(=O)c3cccc4cccc(c34)C2=O)cc(N2C(=O)c3cccc4cccc(c34)C2=O)c1` [Example 1, 1,3-bis[N-[2-[[2-(1,8-naphthalimido)ethyl]amino]ethyl]carbamoyl]-5-(1,8-naphthalimido) benzene dimethanesulfonate], the IC50 (in general, the concentration at which inhibition is half-maximal) amounted to 0.059 µM.

Take `O=C(NCCNCCN1C(=O)c2cccc3cc([N+](=O)[O-])cc(c23)C1=O)c1cc(C(=O)NCCNCCN2C(=O)c3cccc4cc([N+](=O)[O-])cc(c34)C2=O)cc(N2C(=O)c3cccc4cccc(c34)C2=O)c1` [Example 2, 1,3-bis[N-[2-[[2-(3-nitro-1,8-naphthalimido)ethyl]amino]ethyl]carbamoyl]-5(1,8-naphthalimido)benzene dimethanesulfonate]: the IC50 was 0.0061 µM.

Turning to `O=C(NCCNCCn1c2ccccc2c2ccncc21)c1cc(C(=O)NCCNCCn2c3ccccc3c3ccncc32)cc(N2C(=O)c3cccc4cc([N+](=O)[O-])cc(c34)C2=O)c1` [Example 3, 1,3-bis[N-[2-[[2-(pyrido[3,4-b]indol-9-yl)ethyl]amino]ethyl]carbamoyl]-1-(3-nitro-1,8-naphthalimido)benzene tetratrifluoroacetate], the IC50 turned out to be 2.6 µM.

On to `O=C(NCCNCCN1C(=O)c2cccc3cccc(c23)C1=O)c1cc(C(=O)NCCNCCN2C(=O)c3cccc4cccc(c34)C2=O)cc(N2C(=O)c3cccc4cc([N+](=O)[O-])cc(c34)C2=O)c1` [Example 6, 1,3-bis[N-[2-[[2-(1,8-naphthalimido)ethyl]amino]ethyl]carbamoyl]-5-(3-nitro-1,8-naphthalimido)benzene and dihydrochloride thereof], for which the IC50 amounted to 0.064 µM.

With `O=C(NCCNCCN1C(=O)c2cc3ccccc3cc2C1=O)c1cc(C(=O)NCCNCCN2C(=O)c3cc4ccccc4cc3C2=O)cc(N2C(=O)c3cccc4cc([N+](=O)[O-])cc(c34)C2=O)c1` [Example 7, 1,3-bis[N-[2-[[2-(2,3-naphthalimido)ethyl]amino]ethyl]carbamoyl]-5-(3-nitro-1,8-naphthalimido)benzene dihydrochloride], the half-maximal inhibitory concentration (IC50) is 4.1 µM.

Consider `O=C(NCCNCCN1C(=O)c2cccc3c(Cl)ccc(c23)C1=O)c1cc(C(=O)NCCNCCN2C(=O)c3cccc4c(Cl)ccc(c34)C2=O)cc(N2C(=O)c3cccc4cc([N+](=O)[O-])cc(c34)C2=O)c1` [Example 8, 1,3-bis[N-[2-[[2-(4-chloro-1,8-naphthalimido)ethyl]amino]ethyl]carbamoyl]-5-(3-nitro-1,8-naphthalimido)benzene dihydrochloride], for which the IC50 worked out at 0.05 µM.

As to `O=C(NCCNCCN1C(=O)c2cccc3c(Cl)ccc(c23)C1=O)c1cc(C(=O)NCCNCCN2C(=O)c3cccc4c(Cl)ccc(c34)C2=O)cc(N2C(=O)c3cccc4cccc(c34)C2=O)c1` [Example 9, 1,3-bis[N-[2-[[2-(4-chloro-1,8-naphthalimido)ethyl]amino]ethyl]carbamoyl]-5-(1,8-naphthalimido)benzene dihydrochloride], the IC50 came out at 0.023 µM.

Turning to `O=C(NCCCNCCCN1C(=O)c2cccc3cc([N+](=O)[O-])cc(c23)C1=O)c1cc(C(=O)NCCCNCCCN2C(=O)c3cccc4cc([N+](=O)[O-])cc(c34)C2=O)cc(N2C(=O)c3cccc4cc([N+](=O)[O-])cc(c34)C2=O)c1` [Example 11, 1,3-bis[N-[3-[[3-(3-nitro-1,8-naphthalimido)propyl]amino]propyl]carbamoyl]-5-(3-nitro-1,8-naphthalimido)benzene dihydrochloride], the IC50 amounted to 0.14 µM.

Turning to `O=C(NCCNCCNC(=O)c1cnc2ccccc2c1)c1cc(C(=O)NCCNCCN2C(=O)c3cccc4cc([N+](=O)[O-])cc(c34)C2=O)cc(N2C(=O)c3cccc4cc([N+](=O)[O-])cc(c34)C2=O)c1` [Example 13, 1-(3-nitro-1,8-naphthalimido)-3-[N-[2-[[2-(3-nitro-1,8-naphthalimido)ethyl]amino]ethyl]carbamoyl]-5-[N-[2-[[2-(quinoline-3-carbonylamino)ethyl]amino]ethyl]carbamoyl]benzene trihydrochloride], the IC50 came out at 1.6 µM.

With `O=C(NCCNCCNC(=O)c1ccnc2ccccc12)c1cc(C(=O)NCCNCCN2C(=O)c3cccc4cc([N+](=O)[O-])cc(c34)C2=O)cc(N2C(=O)c3cccc4cc([N+](=O)[O-])cc(c34)C2=O)c1` [Example 14, 1-(3-nitro-1,8-naphthalimido)-3-[N-[2-[[2-(3-nitro-1,8-naphthalimido)ethyl]amino]ethyl]carbamoyl]-5-[N-[2-[[2-(quinoline-4-carbonylamino)ethyl]amino]ethyl]carbamoyl]benzene trihydrochloride], the IC50 is 1.3 µM.

`O=C(NCCNCCNC(=O)c1cnc2ccccc2n1)c1cc(C(=O)NCCNCCN2C(=O)c3cccc4cc([N+](=O)[O-])cc(c34)C2=O)cc(N2C(=O)c3cccc4cc([N+](=O)[O-])cc(c34)C2=O)c1` [Example 15, 1-(3-nitro-1,8-naphthalimido)-3-[N-[2-[[2-(3-nitro-1,8-naphthalimido)ethyl]amino]ethyl]carbamoyl]-5-[N-[2-[[2-(quinoxaline-2-carbonylamino)ethyl]amino]ethyl]carbamoyl]benzene trihydrochloride]: the IC50 amounted to 0.21 µM.

With `Cn1c(C(=O)NCCNCCNC(=O)c2cc(C(=O)NCCNCCN3C(=O)c4cccc5cc([N+](=O)[O-])cc(c45)C3=O)cc(N3C(=O)c4cccc5cc([N+](=O)[O-])cc(c45)C3=O)c2)cc2ccccc21` [Example 16, 1-(3-nitro-1,8-naphthalimido)-3-[N-[2-[[2-(3-nitro-1,8-naphthalimido)ethyl]amino]ethyl]carbamoyl]-5-[N-[2-[[2-(1-methylindole-2-carbonylamino)ethyl]amino]ethyl]carbamoyl]benzene dihydrochloride], the IC50 worked out at 6.6 µM.

With `O=C(NCCNCCN1C(=O)c2cc3ccccc3cc2C1=O)c1cc(C(=O)NCCNCCN2C(=O)c3cccc4cc([N+](=O)[O-])cc(c34)C2=O)cc(N2C(=O)c3cccc4cc([N+](=O)[O-])cc(c34)C2=O)c1` [Example 17, 1-[N-[2-[[2-(2,3-naphthalimido)ethyl]amino]ethyl]carbamoyl]-3-(3-nitro-1,8-naphthalimido)-5-[N-[2-[[2-(3-nitro-1,8-naphthalimido)ethyl]amino]ethyl]carbamoyl]benzene dihydrochloride], the IC50 worked out at 0.28 µM.

As for `CN(C)CCCNC(=O)c1cc(NC(=O)CCNC(=O)c2cc(C(=O)NCCNCCN3C(=O)c4cccc5cc([N+](=O)[O-])cc(c45)C3=O)cc(N3C(=O)c4cccc5cc([N+](=O)[O-])cc(c45)C3=O)c2)cn1C` [Example 33, 1-[N-[2-[N-[2-[N-(3-dimethylaminopropyl)carbamoyl]-1-methylpyrrol-4-yl]carbamoyl]ethyl]carbamoyl]-3-(3-nitro-1,8-naphthalimido)-5-[N-[2-[[2-(3-nitro-1,8-naphthalimido)ethyl]amino]ethyl]carbamoyl]benzene dihydrochloride], the IC50 was determined as 7.1 µM.

Take `CN(C)CCCNC(=O)c1cc(NC(=O)CCCNC(=O)c2cc(C(=O)NCCNCCN3C(=O)c4cccc5cc([N+](=O)[O-])cc(c45)C3=O)cc(N3C(=O)c4cccc5cc([N+](=O)[O-])cc(c45)C3=O)c2)cn1C` [Example 34, 1-[N-[3-[N-[2-[N-(3-dimethylaminopropyl)carbamoyl]-1-methylpyrrol-4-yl]carbamoyl]propyl]carbamoyl]-3-(3-nitro-1,8-naphthalimido)-5-[N-[2-[[2-(3-nitro-1,8-naphthalimido)ethyl]amino]ethyl]carbamoyl]benzene dihydrochloride]: the IC50 came to 4.7 µM.

Consider `Cn1cc(NC(=O)c2cc(NC=O)cn2C)cc1C(=O)NCCNCCNC(=O)c1cc(C(=O)NCCNCCN2C(=O)c3cccc4cc([N+](=O)[O-])cc(c34)C2=O)cc(N2C(=O)c3cccc4cc([N+](=O)[O-])cc(c34)C2=O)c1` [Example 38, 1-[N-[2-[[2-[4-(4-formamido-1-methylpyrrole-2-carboxyamido)-1-methylpyrrole-2-carboxamido]ethyl]amino]ethyl]carbamoyl]-3-(3-nitro-1,8-naphthalimido)-5-[N-[2-[[2-(3-nitro-1,8-naphthalimido)ethyl]amino]ethyl]carbamoyl]benzene dihydrochloride], for which the IC50 was found to be 6.9 µM.

Consider `O=C(NCCNCCN1C(=O)c2cccc3cc([N+](=O)[O-])cc(c23)C1=O)c1cccc(N2C(=O)c3cccc4cc([N+](=O)[O-])cc(c34)C2=O)c1` [Example 39, 1-(3-nitro-1,8-naphthalimido)-3-[N-[2-[[2-(3-nitro-1,8-naphthalimido)ethyl]amino]ethyl]carbamoyl]benzene hydrochloride], for which the IC50 is 0.0053 µM.

As to `O=C(NCCNCCCN1C(=O)c2cccc3cc([N+](=O)[O-])cc(c23)C1=O)c1cccc(N2C(=O)c3cccc4cc([N+](=O)[O-])cc(c34)C2=O)c1` [Example 40 (A), 1-(3-nitro-1,8-naphthalimido)-3-[N-[2-[[3-(3-nitro-1,8-naphthalimido)propyl]amino]ethyl]carbamoyl]benzene hydrochloride], the IC50 turned out to be 0.003 µM.

`O=C(NCCCNCCN1C(=O)c2cccc3cc([N+](=O)[O-])cc(c23)C1=O)c1cccc(N2C(=O)c3cccc4cc([N+](=O)[O-])cc(c34)C2=O)c1` [Example 40 (B), 1-(3-nitro-1,8-naphthalimido)-3-[N-[3-[[2-(3-nitro-1,8-naphthalimido)ethyl]amino]propyl]carbamoyl]benzene hydrochloride]: the IC50 was found to be 0.00023 µM.
